Test [1] has as its system MIA PaCa-2 (KRAS G12C) cells. Nature of the test: Cellular pERK HTRF assay. The test is classed as cell-based, human. The following applies: KRAS_G12C pERK assay, cells incubated with compounds 4 hours, read-out: G12C_pERK IC50. As to the method: Example C: Cellular pERK HTRF Assay
MIA PaCa-2 (KRAS G12C; ATCC® CRL-1420), A427 (KRAS G12D; ATCC® HTB53), HPAF-II (KRAS G12D; ATCC® CRL-1997) and NCI-H838 (KRAS WT; ATCC® CRL-5844) cells are purchased from ATCC and maintained in RPMI 1640 media supplemented with 10% FBS (Gibco/Life Technologies). The cells are plated at 5000 cells per well (8 uL) into Greiner 384-well low volume, flat-bottom, tissue culture treated white plates and incubated overnight at 37° C., 5% CO2. The next morning, test compound stock solutions are diluted in media at 3× the final concentration, and 4 uL are added to the cells. The plate is mixed by gentle rotation for 30 seconds (250rpm) at room temperature. The cells are incubated with the KRAS G12C and G12D compounds for 4 hours or 2 hours respectively at 37° C., 5% CO2.
4 uL of 4× lysis buffer with blocking reagent (1:25) (Cisbio) are added to each well and plates are rotated gently (300 rpm) for 30 minutes at room temperature. 4 uL per well of Cisbio anti Phospho-ERK 1/2 d2 is mixed with anti Phospho-ERK 1/2 Cryl)tate (1:1) are added to each well, mixed by rotation and incubated overnight in the dark at room temperature. Plates are read on the Pherastar plate reader at 665 nm and 620 nm wavelengths. IC50 determination is performed by fitting the curve of inhibitor percent inhibition versus the log of the inhibitor concentration using the GraphPad Prism 7 software.

In test [2] the target is KRAS G12C (Homo sapiens, UniProt P01116, G12C). Description: GDP-GTP exchange assay (fluorescence based guanine nucleotide exchange, bodipy-GDP for GppNHp, SOS1). The format is biochemical. Conditions: bodipy-loaded KRAS G12C 2.5 nM, GppNHp 500 uM, SOS1 150 nM; 2 hours pre-incubation with inhibitor; read-out: G12C_exchange IC50. The procedure:
Example A. GDP-GTP Exchange Assay.
The inhibitor potency of the exemplified compounds was determined in a fluorescence based guanine nucleotide exchange assay, which measures the exchange of bodipy-GDP (fluorescently labeled GDP) for GppNHp (Non-hydrolyzable GTP analog) to generate the active state of KRAS in the presence of SOS1 (guanine nucleotide exchange factor). Inhibitors were serially diluted in DMSO and a volume of 0.1 μL was transferred to the wells of a black low volume 384-well plate. 5 μL/well volume of bodipy-loaded KRAS G12C diluted to 5 nM in assay buffer (25 mM Hepes pH 7.5, 50 mM NaCl, 10 mM MgCl2 and 0.01% Brij-35) was added to the plate and pre-incubated with inhibitor for 2 hours at ambient temperature. Appropriate controls (enzyme with no inhibitor or with a G12C inhibitor (AMG -510)) were included on the plate. The exchange was initiated by the addition of a 5 μL/well volume containing 1 mM GppNHp and 300 nM SOS1 in assay buffer. The 10 μL/well reaction concentration of the bodipy-loaded KRAS G12C, GppNHp, and SOS1 were 2.5 nM, 500 uM, and 150 nM, respectively. The reaction plates were incubated at ambient temperature for 2 hours, a time estimated for complete GDP-GTP exchange in the absence of inhibitor. For the KRAS G12D and G12V mutants, similar guanine nucleotide exchange assays were used with 2.5nM as final concentration for the bodipy loaded KRAS proteins and with 4 hours and 3 hours incubation after adding GppNHp-SOS1 mixture for G12D and G12V respectively. A cyclic peptide described to selectively bind G12D mutant (Sakamoto et al., BBRC 484.3 (2017), 605-611) or internal compounds with confirmed binding were used as positive controls in the assay plates. Fluorescence intensities were measured on a PheraStar plate reader instrument (BMG Labtech) with excitation at 485 nm and emission at 520 nm.
Either GraphPad prism or XLfit was used to analyze the data. The IC50 values were derived by fitting the data to a four parameter logistic equation producing a sigmoidal dose -response curve with a variable Hill coefficient. Y=Bottom+(Top−Bottom)/(1+10^((LogIC50−X)*Hill slope)); XLfit equation: Y=(A+((B−A)/(1+((X/C)^D)))) where X is the logarithm of inhibitor concentration and Y is the response. Prism equation: […]

pIC50: −log10 of the molar value. Like-named read-outs stand apart in the source and are kept apart here. A value given as a limit tells only on which side of the number the result lay.

This passage reports IC50 results from patent publication US11999752B2, “Vinyl imidazole compounds as inhibitors of KRAS” (Incyte Corporation, priority 2020, dated 2024).

As to `C=Cc1ncc2n1CCN(c1nc(OCCN3CCOCC3)nc3c(F)c(-c4cc(O)cc5ccccc45)c(Cl)cc13)C2` [Example 16, 4-(6-chloro-8-fluoro-2-(2-morpholinoethoxy)-4-(3-vinyl-5,6-dihydroimidazo-[1,5-a]pyrazin-7(8H)-yl)quinazolin-7-yl)naphthalen-2-ol], the pIC50 was 5.00 to 5.30 in test [1] (Homo sapiens, MIA PaCa-2) and 6.00 to 7.00 in test [2].

Consider `C=Cc1ncc2n1CCN(c1nc(OC3CCCN(C)C3)nc3c(F)c(-c4cc(O)cc5ccccc45)c(Cl)cc13)C2` (racemic) [Example 18, 4-(6-chloro-8-fluoro-2-((1-methylpiperidin-3-yl)oxy)-4-(3-vinyl-5,6-dihydro-imidazo[1,5-a]pyrazin-7(8H)-yl)quinazolin-7-yl)naphthalen-2-ol], for which the pIC50 in test [1] (Homo sapiens, MIA PaCa-2) was 5.00 to 5.30; in test [2], 6.00 to 7.00.

As for `C=Cc1ncc2n1CCN(c1nc(OCCN(C)C)nc3c(F)c(-c4cc(O)cc5ccccc45)c(Cl)cc13)C2` [Example 14, 4-(6-chloro-2-(2-(dimethylamino)ethoxy)-8-fluoro-4-(3-vinyl-5,6-dihydroimidazo[1,5-a]pyrazin-7(8H)-yl)quinazolin-7-yl)naphthalen-2-ol], the pIC50 is 5.30 to 6.00 in test [1] (Homo sapiens, MIA PaCa-2) and 6.00 to 7.00 in test [2].

`C=Cc1ncc2n1CCN(c1nc(OC3CCN(C)CC3)nc3c(F)c(-c4cc(O)cc5ccccc45)c(Cl)cc13)C2` [Example 15, 4-(6-chloro-8-fluoro-2-((1-methylpiperidin-4-yl)oxy)-4-(3-vinyl-5,6-dihydroimidazo[1,5-a]pyrazin-7(8H)-yl)quinazolin-7-yl)naphthalen-2-ol]: the pIC50 in test [1] (Homo sapiens, MIA PaCa-2) is 5.00 to 5.30; in test [2] it was 6.00 to 7.00.

Regarding `C=Cc1ncc2n1CCN(c1nc(OCC3CCCN3C)nc3c(F)c(-c4c(C)ccc5[nH]ncc45)c(Cl)cc13)C2` (racemic) [Example 13, 6-chloro-8-fluoro-7-(5-methyl-1H-indazol-4-yl)-2-((1-methylpyrrolidin-2-yl)methoxy)-4-(3-vinyl-5,6-dihydroimidazo[1,5-a]pyrazin-7(8H)-yl)quinazoline], the pIC50 is 5.00 to 5.30 in test [1] (Homo sapiens, MIA PaCa-2) and 6.00 to 7.00 in test [2].

As for `Cc1ccnc(C(C)C)c1-n1c(=O)nc(N2CCn3c(cnc3/C=C/c3ccc(F)cc3F)C2)c2cc(F)c(-c3c(O)cccc3F)nc21` [Example 7], in test [2], the pIC50 was 5.30 to 6.00.

For the compound “4-(1-cyclopropyl-3-vinyl-5,6-dihydroimidazo[1,5-a]pyrazin-7(8H)-yl)-7-(2-fluoro-6-hydroxyl)henyl)-1-(2-isopropyl-4-methylpyridin-3-yl)quinazolin-2(1H)-one [Example 8]”, the pIC50 in test [2] is 6.00 to 7.00.

In the case of `C=Cc1ncc2n1CCN(c1nc(=O)n(C(C)C)c3nc(-c4c(O)cccc4F)c(F)cc13)C2` [Example 4], the negative-log IC50 (pIC50) in test [1] (Homo sapiens, MIA PaCa-2) is 5.00 to 5.30; in test [2], 6.00 to 7.00.

For the compound `C=Cc1ncc2n1CCN(c1nc(=O)n(-c3c(C)ccnc3C(C)C)c3nc(-c4c(O)cccc4F)c(F)cc13)C2` (single isomer, unassigned) [Example 1], the pIC50 in test [1] (Homo sapiens, MIA PaCa-2) is 5.00 to 5.30; in test [2], 6.00 to 7.00.

Consider `C=Cc1ncc2n1CCN(c1nc(=O)n(CCOC)c3nc(-c4c(O)cccc4F)c(F)cc13)C2` [Example 5], for which the pIC50 in test [2] was 5.30 to 6.00.

On to `C=Cc1ncc2n1CCN(c1nc(=O)n(CC3CC3)c3nc(-c4c(O)cccc4F)c(F)cc13)C2` [Example 3], for which the negative-log IC50 (pIC50) in test [1] (Homo sapiens, MIA PaCa-2) was 5.00 to 5.30; in test [2], 6.00 to 7.00.

With `C=Cc1ncc2n1CCN(c1nc(OCC3CCCN3C)nc3c(F)c(-c4cc(O)cc5ccccc45)c(Cl)cc13)C2` (racemic) [Example 11, 4-(6-chloro-8-fluoro-2-((1-methylpyrrolidin-2-yl)methoxy)-4-(3-vinyl-5,6-dihydroimidazo[1,5-a]pyrazin-7(8H)-yl)quinazolin-7-yl)naphthalen-2-ol], the pIC50 in test [1] (Homo sapiens, MIA PaCa-2) was 5.30 to 6.00; in test [2], no less than 7.00.

Regarding `C=Cc1nc(CN2CC(C(F)(F)F)C2)c2n1CCN(c1nc(=O)n(-c3c(C)ccnc3C(C)C)c3nc(-c4c(O)cccc4F)c(F)cc13)C2` [Example 9], the pIC50 in test [2] is 5.30 to 6.00.

As to `C=Cc1ncc2n1CCN(c1nc(OC[C@@H]3CCCN3C)nc3c(F)c(-c4cc(O)cc5ccccc45)c(Cl)cc13)C2` [Example 17, 4-(6-chloro-8-fluoro-2-(((S)-1-methylpyrrolidin-2-yl)methoxy)-4-(3-vinyl-5,6-dihydroimidazo[1,5-a]pyrazin-7(8H)-yl)quinazolin-7-yl)naphthalen-2-ol], the pIC50 was 5.30 to 6.00 in test [1] (Homo sapiens, MIA PaCa-2) and 6.00 to 7.00 in test [2].

With `Cc1ccnc(C(C)C)c1-n1c(=O)nc(N2CCn3c(cnc3/C=C/c3cc(F)cc(F)c3)C2)c2cc(F)c(-c3c(O)cccc3F)nc21` [Example 6], the negative logarithm of the IC50 (pIC50) in test [2] was 5.30 to 6.00.

As for `C=Cc1nc(CN(C)CC#N)c2n1CCN(c1nc(=O)n(-c3c(C)ccnc3C(C)C)c3nc(-c4c(O)cccc4F)c(F)cc13)C2` [Example 10], in test [2], the pIC50 is 5.30 to 6.00.

In the case of `C=Cc1ncc2n1CCN(c1nc(N3CC(N(C)C)C3)nc3c(F)c(-c4cc(O)cc5ccccc45)c(Cl)cc13)C2` [Example 19, 4-(6-chloro-2-(3-(dimethylamino)azetidin-1-yl)-8-fluoro-4-(3-vinyl-5,6-dihydroimidazo[1,5-a]pyrazin-7(8H)-yl)quinazolin-7-yl)naphthalen-2-ol], the pIC50 in test [1] (Homo sapiens, MIA PaCa-2) was 5.30 to 6.00; in test [2], 6.00 to 7.00.

As for `C=Cc1ncc2n1CCN(c1nc(=O)n(-c3c(C)ccnc3C(C)C)c3nc(-c4c(O)cccc4F)c(F)cc13)C2` (single isomer, unassigned) [Example 2], the values for the pIC50 in test [1] and in test [2] were 5.00 to 5.30 and 6.00 to 7.00, respectively.

As for `C=Cc1ncc2n1CCN(c1nc(OCC3CCCN3C)nc3c(F)c(-c4c(O)cccc4F)c(Cl)cc13)C2` (racemic) [Example 12, 2-(6-chloro-8-fluoro-2-((1-methylpyrrolidin-2-yl)methoxy)-4-(3-vinyl-5,6-dihydroimidazo[1,5-a]pyrazin-7(8H)-yl)quinazolin-7-yl)-3-fluorophenol], the pIC50 in test [1] (Homo sapiens, MIA PaCa-2) was 5.00 to 5.30; in test [2] it was 6.00 to 7.00.
